According to ChEMBL document CHEMBL1134182, “Modified synthesis and antiangiogenic activity of linomide” (2001):

Tests used:
Mus musculus [1] = test: In vivo effect of compound on VEGF-induced angiogenesis in blood volume of mice; assay type: functional
Mus musculus [2] = test: In vivo effect of compound on VEGF-induced angiogenesis in blood vessels of mice; assay type: functional

With `CN(C(=O)c1c(O)c2ccccc2n(C)c1=O)c1ccccc1` [ROQUINIMEX] the Blood volume (Mus musculus [1]) was <0.33 HB g ml-1 and the Activity (Mus musculus [2]) was <3.48%.
